Laboratory results taken from patent US20090018111A1, “Novel Antimicrobial Medicament” (priority 2004, published 2009).
Read-outs that look alike come from different tables or passages of the source.

Columns and labels:
[1] = test system: S. aureus SP-7928 (homo-MRSA); experiment: Sensitivity test (agar dilution); type: cell-based, Staphylococcus aureus; settings: Staphylococcus aureus, MRSA, S. aureus SP-7928 (homo-MRSA)
Summary of the method: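 Standard Japanese agar dilution method. Drugs alone or combined were serially halved in Mueller Hinton agar, inoculated with overnight (37° C) cultures at about 10^6 CFU/ml. Values are MICs.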

[2] = test system: 18 bacteria (27 standard strains); experiment: Sensitivity test, combination effect over the standard strains; type: cell-based; settings: in combination with compound 1, standard strains
Protocol: The antibacterial activities were tested against various 18 bacteria (27 standard strains) which are representative bacteria caused clinically infectious disease (Staphylococcus aureus 3 strains, Staphylococcus epidermidis 1 strain, Micrococcus luteus 1 strain, Streptococcus pyogenes 1 strain, Enterococcus faecalis 1 strain, Enterococcus faecium 1 strain, Bacillus subtilis 1 strain, Escherichia coli 3 strains, Klebsiella pneumoniae 1 strain, Proteus mirabilis 1 strain, Proteus vulgaris 2 strains, Pseudomonas aeruginosa 3 strains, Serratia marcescens 2 strains, Enterobacter aerogenes 1 strain, Stenotrophomonas maltophilia 1 strain, Enterobacter cloacae 1 strain, Citrobacter freundii 1 strain, Moraxella catarrhalis 2 strains).
According to the standard method of Japan Chemotherapeutic Society (Chemotherapy, vol. […], p 76-79 (1981)) the test was carried out using the agar dilution method. After dissolving test samples in distilled water, agar medium containing the test samples was prepared in such a manner that the final concentration became twice serial dilution by pouring serially diluted combination drug solution or a single drug solution into agar medium. As agar medium was used Mueller Hinton Agar medium (MHA). Then, each strain was cultivated over night at 37° C. in an incubator and suspended in buffered saline solution with gelatin (BSG) in the concentration of about 10^6 CFU/ml. The suspension (about 5 μl) containing test strains was inoculated to the medium containing the test samples by Micro Planter.
When the sample is subjected to sensitivity test, this mixed solution was diluted by twice serial dilution method.
FIC index based on MIC value was calculated. […] Namely, when FIC index calculated by the following formula is equal or less than 1, the enhanced effect of the combination drug in said ratio is considered as positive. When FIC index is over 1, the enhanced effect of the combination drug in said ratio is considered as negative.
Formula of FIC index: FIC index=(MIC of Drug A in combination/MIC of Drug A alone)+(MIC of Drug B in combination/MIC of Drug B alone) N.C. in tables means being not calculated.

[3] = drug alone, read-out: MIC alone

| Compound | MIC ([1]; Concomitant (CAZ:SM = 1:1), read-out: MIC concomitant) | MIC [1, 3] | combination effect [2] | MIC ([1]; Concomitant (BIPM:SM = 1:1), read-out: MIC concomitant) |
| --- | --- | --- | --- | --- |
| CC(C)(O/N=C(\C(=O)N[C@@H]1C(=O)N2C(C(=O)[O-])=C(C[n+]3ccccc3)CS[C@H]12)c1csc(N)n1)C(=O)O [CAZ, ceftazidime] | 1 µg/mL | > 32 µg/mL | antagonism was recognized | – |
| C[C@@H](O)[C@H]1C(=O)N2C(C(=O)[O-])=C(SC3Cn4cnc[n+]4C3)[C@H](C)[C@H]12 (stereo partly drawn) [BIPM, biapenem] | – | > 32 µg/mL | the combination effect was recognized | 2 µg/mL |
